{"source": "patent US12577273B2", "about": "“Small molecule modulators of gut bacterial bile acid metabolism” (priority 2019, dated 2026)", "key": {"B. vulgatus": {"tested_on": "B. vulgatus", "assay": "Inhibitor screen in bacteria, B. vulgatus culture", "type": "cell-based, Bacteroides vulgatus ATCC 8482", "details": "FIG. 2c, 100 μM inhibitor, 100 μM bile acid pool, 21 h, replicates 1-3", "protocol": "Bacterial Culturing. All bacterial strains were cultured at 37° C. in Cullen-Haiser Gut (CHG) media (which consists of brain heart infusion media (Bacto™ BHI, BD) supplemented with 1% BBL vitamin K1-hemin solution (BD), 1% trace minerals solution (ATCC), 1% trace vitamins solution (ATCC), 5% fetal bovine serum (Hyclone), 1 g/L cellubiose, 1 g/L maltose, and 1 g/L fructose) or BHI^+ (Bacto™ BHI, BD, supplemented with 5 mg/L hemin, and 2.5 uL/L Vitamin K1). All strains were grown under anaerobic conditions in a anaerobic chamber (Coy Lab Products Airlock) with a gas mix of 5% hydrogen and 20% carbon dioxide nitrogen. Escherichia coli was grown aerobically at 37° C. in LB medium supplemented with ampicillin to select for the pET21b plasmid.\nInhibitor Screen in Bacteria. Bacterial cultures were diluted to OD600 of 0.1 in 4 mL BHI^+, containing 100 μM taurine conjugated bile acid pool 100 μM inhibitors. […] After 21 h, serial dilutions were plated on BHI^+ agar to determine cell viability (CFU/mL). […] The cultures were spun down in a centrifuge at 2,500 g for 5 mins to obtain better separation. The organic layer was then removed and the aqueous layer was extracted again using 2 mL of ethyl acetate."}, "[1]": {"tested_on": "three Gram negative and three Gram positive strains of human gut bacteria", "assay": "BSH inhibition in growing cultures of six gut bacterial strains (overall statements)", "type": "cell-based", "details": "100 μM inhibitor, 100 μM conjugated bile acid mixture"}, "B. theta BSH": {"biological_target": "B. theta BSH (Bacteroides thetaiotaomicron, UniProt Q8A600)", "assay": "Mass spectrometry analysis for identifying labeled residue on BSH", "type": "binding", "protocol": "Mass Spectrometry Analysis for Identifying Labeled Residue on BSH. BSH protein was incubated with DMSO or a 10-fold molar excess of inhibitor 7 for 2 h at room temperature. Reactions were then analyzed by LC-MS using a Shimadzu LC and autosampler system (Shimadzu, Marlborough, MA) interfaced to an LTQ ion trap mass spectrometer (ThermoFisher Scientific, San Jose, CA).\nTo determine the site of modification, compound 7 modified protein was analyzed as described above, except that the LC system was interfaced to an Orbitrap Lumos Mass Spectrometer (ThermoFisher Scientific). […] Ion assignments were performed using mzStudio software.^50"}, "C57BL/6 mice": {"tested_on": "C57BL/6 mice", "type": "in vivo, mouse", "details": "single gavage 10 mg/kg; for BSH activity in feces: 1 day and 1.5 days post-gavage", "protocol": "Mice were split into two groups of four mice each and were gavaged with either 200 μL of corn oil containing 5% DMSO (vehicle group) or with 200 μL of corn oil containing 7 at a concentration of 1.25 mg/mL (experimental group). For the fecal pellet collection, each mouse was transferred to a temporary cardboard cage for a few minutes until it defecated.\nQuantification of Bile Acids in Tissues and Plasma.\nDetermination of Microbial Biomass by Plating. Frozen fecal pellets were used to determine colony forming units (CFU/g). Feces were suspended in PBS buffer in an anaerobic chamber. Serial dilutions were plated on CHG agar plates (see “Bacterial Culturing”) and incubated at 37° C.\nIsolation of Fecal Bacterial Microbiota and 16S rRNA Gene Sequencing Analysis. Mouse fecal microbiota DNA was isolated by using ZymoBIOMICS 96 DNA Kit (ZymoBIOMICS™) according to the manufacturer's instructions. […]\nGel electrophoresis was used to check the success of PCR amplification. The concentration of the PCR product was measured by the Quan-IT dsDNA high sensitivity assay. ˜120 ng of DNA of each PCR product was pooled together to generate an aggregated library for downstream processing. PCR DNA amplicons between 300-500 bp were selected from the aggregated library on a targeted size selection platform (pippin prep 1.5% agarose cassette from Sage Sciences) according to the manufacturer's instructions. The size of DNA amplicons was characterized on an Agilent Technologies 2100 bioanalyzer trace. DNA concentration of the aggregated library was measured by the Quant-IT dsDNA high sensitivity assay. […] 600 ul of the denatured and diluted library with 20% phiX spike-in (120 ul, 7.5 pM of phiX) was loaded onto the MiSeq V2 reagent cartridge (Illumina) and was sequenced with paired-end 250 bp reads using the custom primers described above. […] The resulting FASTQ sequences were then quality-filtered and analyzed by following QIIME_mothur_DADA2.^56-59 Operational Taxonomic Units (OTUs) were picked with 97% sequence similarity. […]"}, "B. longum BSH": {"biological_target": "T1, B. longum BSH (Bifidobacterium longum, UniProt Q9KK62)", "T1 sequence (Q9KK62 1-317)": "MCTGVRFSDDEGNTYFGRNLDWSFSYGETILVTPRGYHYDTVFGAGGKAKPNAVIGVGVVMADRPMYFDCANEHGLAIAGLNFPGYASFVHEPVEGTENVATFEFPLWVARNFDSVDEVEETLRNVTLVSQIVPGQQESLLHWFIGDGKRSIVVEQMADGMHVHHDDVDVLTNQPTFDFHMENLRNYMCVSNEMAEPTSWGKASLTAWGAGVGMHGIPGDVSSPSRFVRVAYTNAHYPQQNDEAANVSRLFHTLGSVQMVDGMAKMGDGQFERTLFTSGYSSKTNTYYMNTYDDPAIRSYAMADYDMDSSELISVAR", "assay": "Inhibitor screen using rBSH, B. longum BSH (UPLC-MS % deconjugation)", "type": "biochemical, Bifidobacterium longum SBT2928", "design": "His6 (C); made in house; host or cells: Escherichia coli (as for the B. theta enzyme)", "details": "100 μM inhibitor; 2 h, 5 h and 21 h timepoints", "protocol": "B. longum rBSH. Recombinant BSH from B. longum SBT2928 was expressed and purified as above, except 0.25 mM IPTG was used for protein expression and 1 mM TCEP for protein purification.\nInhibitor Screen Using rBSHs."}}, "note": "Where “and” joins values, the source holds several entries; their conditions need not be identical. Identical values can stand only once. Entries after “also recorded” stand apart in the source; their conditions may differ. Like-named read-outs stand apart in the source and are kept apart here.", "data": [{"smiles": "C[C@H](CCC(=O)CF)[C@H]1CC[C@H]2[C@@H]3[C@H](O)C[C@@H]4C[C@H](O)CC[C@]4(C)[C@H]3CC[C@]12C", "note": "[Compound 7]", "values": [{"measurement": "% deconjugation of TCA", "setting": "B. vulgatus", "result": "0.68% and 0.64% and 0.47%"}, {"measurement": "% deconjugation of TDCA", "setting": "B. vulgatus", "result": "0.90% and 0.17% and 0.81%"}, {"measurement": "% deconjugation of TUDCA", "setting": "B. vulgatus", "result": "1.90% and 3.62% and 0.80%"}, {"measurement": "% deconjugation of TβMCA", "setting": "B. vulgatus", "result": "1.58% and 0.41% and 0.65%"}, {"measurement": "deconjugation / BSH inhibition in cultures of the six bacterial strains (in words)", "setting": "[1]", "result": "almost no deconjugation"}, {"measurement": "deconjugation / BSH inhibition in cultures of the six bacterial strains (in words)", "setting": "[1]; listed as compound 7", "result": "almost no detectable deconjugation"}, {"measurement": "modified residue of B. theta BSH (top-down MS)", "setting": "B. theta BSH; 10-fold excess of compound 7", "result": "Cys2"}, {"measurement": "shift in mass of BSH after treatment", "setting": "B. theta BSH; 10-fold excess of compound 7, 2 h", "result": 388, "unit": "Da"}, {"measurement": "shift in the intact mass of the protein", "setting": "B. theta BSH; incubation of B. theta BSH with compound 7", "result": 388, "unit": "mass units"}, {"measurement": "BSH activity in feces", "setting": "C57BL/6 mice; 10 mg/kg", "result": "significant decrease in BSH activity in feces"}, {"measurement": "BSH activity in feces", "setting": "C57BL/6 mice; listed as compound 7, 10 mg/kg", "result": "significantly lower"}, {"measurement": "fecal deoxycholic acid (DCA)", "setting": "C57BL/6 mice; 1 day post-gavage", "result": "a decrease in the deconjugated secondary bile acid deoxycholic acid (DCA) was observed"}, {"measurement": "inhibition of B. longum BSH (in words)", "setting": "B. longum BSH", "result": "most potent inhibitor; also recorded: most active inhibitor"}]}]}
